How the values were obtained:
Type in all cases: cell-based, human
CDK1 = assay: immunoblotting of G2/M-arrested cells incubated with CDK1 inhibitor; settings: T47D
Experimental: To detect expression of PBK/TOPK (WT, T9A, KD, T9A/KD), p47, p97 or PP1α proteins, immunoblottings were performed according to previous report (Park et al., 2006). Briefly, cells were lysed in lysis buffer (50 mM Tris-HCl, pH 8.0/150 mM NaCl/0.5% NP-40) followed by homogenization and incubation on ice for 30 minutes, only soluble fractions were separated from cell debris by centrifugation. After SDS-PAGE (sodium dodecyl sulfate polyacrylamide gel electrophoresis), the proteins were blotted onto nitrocellulose membrane (GE Healthcare, Buckinghamshire, United Kingdom), incubated with the corresponding antibodies, and visualized using an ECL detection kit (GE Healthcare). To collect the mitotic cells, the present inventors employed a “mitotic shake-off” method as described previously (Dechat T et al., EMBO J. 17: 4887-902 (1998)). A protein-protein interaction was examined by immunoprecipitation after co-transfection with above described constructs of interest to COS-7 cells using the FuGene6 reagent (Roche) as described previously (Shimo A et al., Cancer Sci 98: 174-81 (2007)) except using an anti-6×His antibody (Santa Cruz Biotechnology) to precipitated p97/VCP-myc-6×His protein. After washing 5 times with lysis buffer, immunocomplexes were loaded on a SDS-PAGE gel and immunoblotted as described above.
An active recombinant PBK/TOPK protein was purchased from Invitrogen (Carlsbad, Calif.), and recombinant proteins of Histone H3 and Protein Phosohatase 1-alpha (PP1α were from Upstate Biotechnology (Lake Placidy, N.Y.). Cyclin-dependent kinase-1 (CDK1 kinase) (cdc2/cyclin B1) and lambda protein phosphatase (λPPase) were from New England Biolabs (Ipswich, Mass.). The glutathione S-transferase (GST)-tagged PBK/TOPK (GST-PBK/TOPK) protein was expressed in Escherichia coli and purified with Glutathione Sepharose 4B beads (GE Heath care, Buckinghamshire, United Kingdom) according to the previous report (Lin et al., 2007). […]

PBK/TOPK [1] = assay: western blot of PBK/TOPK phosphorylation after okadaic acid; settings: T47D
Experimental: Wild-type and kinase-dead PBK/TOPK proteins were exogenously expressed by transfection into T47D cell using pCAGGS-nHA expression vector. Whole cell lysates were harvested 48 h after the transfection. The cells were lysed in the cell lysis buffer as described above. The following procedures are the same as described above except that anti-HA rat high-affinity antibody (Roche) was used for the antibody reaction. […] The following procedures were also carried out as described above. Phosphorylated protein was confirmed by treatment with 1 U of lambda protein phosphatase (New England Biolabs, Ipswich, Mass.) at 30° C. for 2 h.

T47D cells = assay: FACS cell cycle analysis after nocodazole
Experimental: For PBK/TOPK, the cell cycle of cultured T47D breast cancer cells were synchronized via the treatment with aphidicolin (Sigma-Aldrich) for 16 h, washing 5 times with PBS (−), and addition of fresh culture media to release from cell-cycle arrest. For 15 h (every 3 h) after releasing, cells were collected and fixed with 70% ethanol, and then kept at 4° C. before use. Cells were incubated with 10 mg/mL RNaseI in PBS (−) at 37° C. for 30 min and stained with 50 μg of propidium iodide at room temperature for 30 min. Cell suspensions at each time point were analyzed with FACscan (Becton Dickinson, Franklin Lakes, N.J.).
To collect the G2/M arrested cells, 0.3 μg/mL of nocodazole (Sigma-Aldrich) was treated to culture media for the last 16 hours before collection.

PBK/TOPK [2] = assay: western blot of PBK/TOPK after nocodazole; settings: T47D; 6 to 18 h
BT-549 and BT-474 cells = assay: colony-formation and MTT assays, A7322 siRNA
Experimental: (§1) Human breast cancer cells-lines, BT-549 and BT-474 (for A7322) and T47D and HBC4 (for F3374), were plated onto 10-cm dishes (2×10^6 cells/dish) and transfected with 8 μg each of psiU6BX3.0-Mock (without insertion), psiU6BX3.0-A7322 (#2, #3 and a mismatch construct (m#3) including three-base substitutions in #3), psiU6BX3.0-F3374V1 (#1, and #4), psiU6BX3.0-EGFP, psiU6BX3.0-SCR using FuGENE6 reagent (Roche) as described above. Inventors selected the psiU6BX3.0-introduced BT-549, BT-474, T47D and HBC4, with medium containing 0.2 mg/ml or 1 mg/ml of neomycin (Geneticin, Gibco BRL, Carlsbad, Calif.), respectively. […] To evaluate an effect of siRNAs, total RNAs were extracted from the cells at 4-day incubation with neomycin, and then the knockdown effect of siRNAs was examined by a semi-quantitative RT-PCR using specific primer sets;
Transfectants expressing siRNA were grown for 4 weeks in selective media containing neomycin, then fixed with 4% paraformaldehyde for 15 min before staining with Giemsa's solution (Merck, Whitehouse Station, N.J.) to assess colony number. To quantify cell viability, MTT assays were performed with cell counting kit-8 4 days after transfection according to manufacturer's recommendation (Wako, Osaka, Japan). Absorbance at 570 nm wavelength was measured with a Microplate Reader 550 (Bio-Rad). […]

A7322 = assay: semi-quantitative RT-PCR of A7322 after siRNA vector transfection; settings: BT-549 and BT-474 cells; compared with psiU6BX-Mock
Experimental: Inventors established a vector-based RNAi (RNA interference) expression system using psiU6BX3.0 siRNA expression vector as described previously (Taniuchi K et al. Cancer Res., 65:105-112. 2005.). siRNA expression vectors against A7322 (psiU6BX3.0-A7322), F3374V1 (psiU6BX3.0-F3374V1), EGFP (psiU6BX3.0-EGFP), Scramble (psiU6BX3.0-SCR) and Mock (psiU6BX3.0-Mock) were prepared by cloning of double-stranded oligonucleotides into the BbsI site of the psiU6BX3.0 vector. The target sequences of synthetic oligonucleotides for siRNA were as follows;
as §1

F3374 protein = assay: western blot of F3374 protein after siAURKB; settings: T47D cells; vs siEGFP
Experimental: To detect the endogenous F3374 and AURKB proteins in breast cancer cell lines (HBC4, BT-549, HBC5, HBL100, HCC1937, MCF-7, MDA-MB-231, MDA-MB-453, SKBR3, and T47D, and ZR75-1) and human mammary gland epithelial cell (HMEC), cells were lysed in lysis buffer (50 mM Tris-HCl, pH 8.0/150 mM NaCl/0.5% NP-40) including 0.1% protease inhibitor cocktail III (Calbiochem, San Diego, Calif.). The amount of total protein was estimated by protein assay kit (Bio-Rad, Hercules, Calif.), and then proteins were mixed with SDS-sample buffer and boiled before loading at 10% SDS-PAGE gel. After electrophoresis, the proteins were blotted onto nitrocellulose membrane (GE Healthcare). After blocking with blocking solution (4% BlockAce; Dainippon Pharmaceutical. Co., Ltd, Osaka, Japan), membranes blotting proteins were incubated with anti-F3374 polyclonal antibody at 1:100 dilutions or anti-AURKB rabbit polyclonal antibody (abcam, Cambridge, UK) at 1:100 dilutions for detection of endogenous F3374 or AURKB protein. Finally the membrane was incubated with HRP conjugated-secondary antibody and protein-bands were visualized by ECL detection reagents (GE Healthcare). Beta-actin was examined to serve as a loading control. […]

HBC4 cells = assay: microscopy of morphological changes after siF3374; settings: vs siEGFP
Description: (§2) Furthermore, the present inventors used siRNA oligonucleotides (Sigma Aldrich Japan KK, Tokyo, Japan) due to its high transfection efficiency to further verify the knockdown effects of F3374 and AURKB on cell morphology. The sequences targeting each gene were as follows:
(§3) T47D or HBC4 cells (2.5×10^5 cells in 10 cm dish for FACS analysis) cells were transfected with those siRNAs using Lipofectamin RNAiMAX (Invitrogen) in Optimem (Invitrogen) medium according to the instructions of manufacture. Forty-eight hours after transfection, morphological changes of the HBC4 cells were examined by microscopy and by immunocytochemical staining analysis using Alexa Fluor 594 Phalloidin (Molecular Probe).

F3374 = assay: western blot of F3374 after siF3374 oligonucleotide; settings: HBC4 cells
Description: as §2, §3

CCn1cnc2c(Nc3cccc(Cl)c3)nc(N[C@@H]3CCCC[C@@H]3N)nc21 [CDK1 inhibitor, CGP74514A]
phosphorylation level of the Rb protein at Ser807 and 811 (CDK1; 0 to 4 hours): decreased phosphorylation level
phosphorylation of PP1α at Thr320 (CDK1; 0 to 4 hours): reduced phosphorylation
phosphorylation of PBK/TOPK induced by G2/M arrest (CDK1; 0 to 4 hours after nocodazole 16 hours): diminished in time-dependent manner

C=C1[C@@H](O)[C@@H]2O[C@]3(CC[C@H](/C=C/[C@@H](C)[C@@H]4CC(C)=C[C@@]5(O[C@H](C[C@@](C)(O)C(=O)O)CC[C@H]5O)O4)O3)CC[C@H]2O[C@@H]1[C@@H](O)C[C@H](C)[C@H]1O[C@@]2(CCCCO2)CC[C@H]1C [OA, okadaic acid]
phosphorylation of PBK/TOPK (PBK/TOPK [1]; 100 nM for 9 hours): induced
phosphorylation of PBK/TOPK (PBK/TOPK [1]; low concentration (less than 100 nM)): not

COC(=O)Nc1nc2ccc(C(=O)c3cccs3)cc2[nH]1 [nocodazole]
proportion of cells at the G2/M phase (T47D cells; 6 to 18 h): elevated
cells synchronized at G2/M phase (T47D cells; treatment for 16 hours): 61-70%
intensity of high-molecular (phosphorylated) band of endogenous PBK/TOPK (PBK/TOPK [2]): elevated in a time-dependent manner

m#3: mismatch siRNA with 3-bp replacement in A7322 si-#3, 5′-AATATTCGATCTCTGCCACAC-3′ (SEQ ID NO: 36) (listed as DNA, chemistry not given here)
growth of BT-549 and BT-474 cells (BT-549 and BT-474 cells): no suppressive effect
expression level of A7322 (A7322): no suppressive effect

siAURKB: siRNA oligonucleotide 5′-AAGGUGAUGGAGAAUAGCAGU-3′ (SEQ ID NO: 66) targeting AURKB (listed as RNA, chemistry not given here)
phosphorylated F3374 protein (F3374 protein): significant decrease
total F3374 protein (F3374 protein): significant decrease

siF3374: siRNA oligonucleotide 5′-ACUCCUACGUUCUCUAUUA-3′ (SEQ ID NO: 65) targeting F3374 (listed as RNA, chemistry not given here)
morphological alterations: cell size (HBC4 cells): enlargement of the size of the cells
morphological alterations: cytokinesis (HBC4 cells): appearance of the intercellular bridges between two separating-cells
knockdown effect at the protein level (F3374) (F3374): significant knockdown effect
